Experimental data from ChEMBL document CHEMBL5608212, “N-acylbenzimidazoles as selective Acylators of the catalytic cystein of the coronavirus 3CL protease” (Eur J Med Chem, 2024).
Activity calls are given as the source filed them. The rule behind the calls is not given here.

What was measured:
[1] = molecular target: T1, Replicase polyprotein 1ab (Severe acute respiratory syndrome coronavirus 2, UniProt P0DTD1); assay: Inhibition of SARS-CoV-2 3CLpro using Dabcyl-KTSAVLQSGFRKM-Glu(Edans) as substrate preincubated for 1 hrs in presence of 2 mM GSH followed by substrate addition and measured after 30 mins by FRET assay
[2] = Inhibition of C-terminal 6-His tagged recombinant SARS-CoV 3CLpro (Ser1 to Gln306 residues) extracted from Escherichia coli using Dabcyl-KTSAVLQSGFRKM-Glu(Edans) as substrate preincubated 1 hr in presence of 2 mM GSH followed by substrate addition and measured after 30 mins by FRET assay; design: species or system Severe acute respiratory syndrome-related coronavirus
[3] = molecular target: Replicase polyprotein 1ab (Human coronavirus 229E, UniProt P0C6X1); assay: Inhibition of hCoV-229E 3CLpro using Dabcyl-KTSAVLQSGFRKM-Glu(Edans) as substrate preincubated 1 hr in presence of 2 mM GSH followed by substrate addition and measured after 30 mins by FRET assay
Replicase polyprotein 1ab (Human coronavirus 229E, UniProt P0C6X1), sequence (P0C6X1 2966-3267 limits assumed): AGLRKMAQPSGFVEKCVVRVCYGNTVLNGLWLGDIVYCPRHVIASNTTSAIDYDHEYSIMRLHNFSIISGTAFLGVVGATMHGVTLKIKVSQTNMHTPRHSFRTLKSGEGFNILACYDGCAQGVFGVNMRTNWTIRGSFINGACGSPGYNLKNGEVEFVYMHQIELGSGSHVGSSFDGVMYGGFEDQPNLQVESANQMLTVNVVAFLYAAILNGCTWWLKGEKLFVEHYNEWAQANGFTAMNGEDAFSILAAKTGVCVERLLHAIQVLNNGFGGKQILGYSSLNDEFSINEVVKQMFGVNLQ

[4] = Inhibition of MERS-CoV 3CLpro using Dabcyl-KTSAVLQSGFRKM-Glu(Edans) as substrate preincubated 1 hr in presence of 2 mM GSH followed by substrate addition and measured after 30 mins by FRET assay; design: species or system Middle East respiratory syndrome-related coronavirus
[5] = test system: Human coronavirus 229E; assay: Antiviral activity against HCoV-229E expressing renilla luciferase reporter gene infected in human Huh-7 cells pre-infected […] for 1 hr followed by compound addition and measured after 6 hrs by luciferase based assay; assay type: functional, organism-based
[6] = Inhibition of human cathepsin 1 using QXL520/HiLyteFlour 488 as substrate preincubated for 60 mins and measured after 30 mins by fluorescence based assay
[7] = molecular target: T2, Calpain-1 catalytic subunit (Homo sapiens, UniProt P07384); assay: Inhibition of human calpain 1 using (DABCYL)-TPLKSPPPSPR-(EDANS) as substrate incubated for 30 mins in presence of calcium ions and GSH and measured after 30 mins by fluorescence based assay
T2 sequence (P07384 whole entry): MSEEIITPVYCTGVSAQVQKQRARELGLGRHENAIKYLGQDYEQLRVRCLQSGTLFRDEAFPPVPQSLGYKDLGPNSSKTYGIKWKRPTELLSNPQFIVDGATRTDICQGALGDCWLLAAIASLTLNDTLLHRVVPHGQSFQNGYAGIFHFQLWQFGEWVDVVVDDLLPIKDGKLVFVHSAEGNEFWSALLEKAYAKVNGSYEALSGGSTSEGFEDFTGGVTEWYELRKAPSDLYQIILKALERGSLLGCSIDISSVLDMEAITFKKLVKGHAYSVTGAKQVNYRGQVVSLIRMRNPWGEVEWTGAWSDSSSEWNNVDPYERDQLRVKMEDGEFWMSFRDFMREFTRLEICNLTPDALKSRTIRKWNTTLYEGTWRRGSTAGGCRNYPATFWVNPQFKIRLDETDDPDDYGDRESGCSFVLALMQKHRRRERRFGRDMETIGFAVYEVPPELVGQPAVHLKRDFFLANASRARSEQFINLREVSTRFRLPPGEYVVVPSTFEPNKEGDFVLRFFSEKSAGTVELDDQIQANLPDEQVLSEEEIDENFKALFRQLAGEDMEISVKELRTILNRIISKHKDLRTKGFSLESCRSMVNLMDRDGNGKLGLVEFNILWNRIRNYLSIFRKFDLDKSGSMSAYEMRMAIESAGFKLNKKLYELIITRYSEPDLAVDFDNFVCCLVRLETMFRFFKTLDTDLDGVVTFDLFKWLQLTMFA

[8] = molecular target: Replicase polyprotein 1ab (Severe acute respiratory syndrome coronavirus 2) (UniProt P0DTD1); assay: Inhibition of SARS-CoV-2 3CLpro using Dabcyl-KTSAVLQSGFRKM-Glu(Edans) as substrate at 100 uM preincubated for 1 hrs in presence of 2 mM GSH followed by substrate addition and measured after 30 mins by FRET assay relative to control; settings: time 1.5 hrs
[9] = molecular target: T1, Replicase polyprotein 1ab; assay: Inhibition of SARS-CoV-2 3CLpro using Dabcyl-KTSAVLQSGFRKM-Glu(Edans) as substrate preincubated for 60 mins in absence of GSH followed by substrate addition and measured after 30 mins by FRET assay; settings: read-out: pIC50 (converted)
[10] = molecular target: T1, Replicase polyprotein 1ab; assay: Inhibition of SARS-CoV-2 3CLpro using Dabcyl-KTSAVLQSGFRKM-Glu(Edans) as substrate preincubated for 60 mins in presence of GSH followed by substrate addition and measured after 30 mins by FRET assay; settings: read-out: pIC50 (converted)
[11] = GSH reactivity in HEPES buffer at pH 7.4 assessed as half life at 1 uM; assay type: ADME; settings: glutathione (GSH) in HEPES buffer
[12] = molecular target: Replicase polyprotein 1ab (Severe acute respiratory syndrome coronavirus 2) (UniProt P0DTD1); assay: Reversible inhibition of SARS-CoV-2 3CLpro using Dabcyl-KTSAVLQSGFRKM-Glu(Edans) as substrate at 10 times IC50 preincubated for 1 hr followed by 100-fold dilution to 0.1 times IC50 with substrate solution by jump dilution assay
[13] = test system: SARS-CoV-2; assay: microbe, parasite or virus in culture; settings: Severe acute respiratory syndrome coronavirus 2, Vero

Compound | IC50 ([1]; read-out: IC50) [nM] | pIC50 [1] | further results
CSc1nc2ccccc2n1C(=O)c1ccsc1 | 2400 |  | 
Cc1ccc(C(=O)n2c(-c3ccccc3)nc3ccccc32)cc1 | > 100000 | < 4 | 
Cc1ccc(C(=O)n2c(C)nc3cc4c(cc32)OCCO4)cc1 | 7500 |  | 
Cc1ccc(C(=O)n2nnc3ccccc32)cc1 | > 100000 | < 4 | 
CSc1nc2ccc(F)cc2n1C(=O)c1ccc(C)c(F)c1 | 260 |  | 
CSc1nc2cc3c(cc2n1C(=O)c1ccc(C)c(F)c1)OCO3 | 70 |  | pIC50 [2]: 6.49; IC50 [3]: 320 nM; IC50 [4]: 2900 nM; pIC50 [4]: 5.53; EC50 [5]: 29200 nM
CSc1nc2ccccc2n1C(=O)NCc1ccc(C)cc1 | > 100000 | < 4 | 
CSc1nc2ccccc2n1Cc1ccc(C)cc1 | > 100000 | < 4 | 
CC(C)C[C@H](NC(=O)OCc1ccccc1)C(=O)N[C@@H](CC1CCNC1=O)C(O)S(=O)(=O)O (stereo not given in full) |  |  | IC50 [2]: 50 nM; pIC50 [2]: 7.33; IC50 [4]: 340 nM; pIC50 [4]: 6.47; IC50 [6]: 1 nM
Cc1ccc(C(=O)n2c(C(F)(F)F)nc3ccccc32)cc1 | 17000 |  | 
CSc1nc2ccccc2n1C(=O)Oc1ccccc1 | > 100000 | < 4 | 
CSc1nc2ccc(C#N)cc2n1C(=O)c1ccc(C)c(F)c1 | 6300 |  | 
COc1cc2nc(SC)n(C(=O)c3ccc(C)cc3)c2cc1OC | 6800 |  | 
CSc1nc2ccccc2n1C(=O)c1ccc(C(C)(C)C)cc1 | > 100000 | < 4 | 
COc1ccc(C(=O)n2c(SC)nc3ccccc32)cc1OC | 4000 |  | 
Cc1ccc(C(=O)n2c(C)nc3ccccc32)cc1F | 150 |  | IC50 [2]: 210 nM; pIC50 [2]: 6.67; IC50 [3]: 2600 nM; IC50 [4]: 2800 nM; pIC50 [4]: 5.56; IC50 [7]: > 100000 nM; IC50 [6]: > 100000 nM; EC50 [5]: 25400 nM
CSc1nc2ccccc2n1C(=O)c1ccccc1C | > 100000 | < 4 | 
Cc1ccc(C(=O)n2c(C#N)nc3ccccc32)cc1 | > 100000 | < 4 | 
CSc1nc2ccccc2n1C(=O)c1cccc(C)c1 | 2100 |  | 
Cc1ccc(C(=O)n2ncc3ccccc32)cc1 | > 100000 | < 4 | 
Cc1ccc(C(=O)n2c(S)nc3ccccc32)cc1 | > 100000 | < 4 | 
CSc1nc2ccccc2n1C(=O)c1ccccc1C(F)(F)F | > 100000 | < 4 | 
CCSc1nc2ccccc2n1C(=O)c1ccc(C)cc1 | 3760 |  | 
CSc1nc2ccccc2n1C(=O)C1CC1 |  |  | inhibition [8]: 61%
Cc1ccc(C(=O)n2c(N)nc3ccccc32)cc1 | > 100000 | < 4 | 
COc1nc2ccccc2n1C(=O)c1ccc(C)cc1 | > 100000 | < 4 | 
CSc1nc2cc3c(cc2n1C(=O)c1ccc(C)cc1)OCO3 | 70 |  | IC50 [9]: 85.1 nM; IC50 [10]: 120 nM; half-life at 1 µM [11]: 16 min; inhibition [12]: Active; IC50 [2]: 150 nM; pIC50 [2]: 6.82; IC50 [3]: 750 nM; IC50 [4]: 990 nM; pIC50 [4]: 6.01; IC50 [7]: > 100000 nM; IC50 [6]: > 100000 nM; EC50 [5]: 4800 nM; EC50 [13]: 3100 nM
CSc1nc2ccc(Cl)cc2n1C(=O)c1ccc(C)cc1 | 890 |  | IC50 ([1]; read-out: pIC50 (converted)): 269 nM
CSc1nc2ccccc2n1C(=O)c1ccc(C(F)(F)F)cc1 | 2720 |  | 
CSc1nc2ccccc2n1S(=O)(=O)c1ccc(C)cc1 | > 100000 | < 4 | 
